Source: the NIST ThermoML archive (doi:10.1016/j.jct.2006.04.005)

Legend:
[1] = xn = mol fraction of the nth substance listed; conditions: 303.15 K, 101 kPa, Liquid; for viscosity: Capillary tube (Ostwald / Ubbelohde) method; for mass density: Pycnometric method; for excess molar volume: Direct dilatometry
[2] = 303.15 K, 101 kPa, Liquid

C[S+](C)[O-] [dimethyl sulfoxide] + Cc1ccccc1[N+](=O)[O-]
[1], x1 = 1
Conditions	mass density [kg/m3]	speed of sound [m/s]	viscosity [mPa·s]
–	1091.35	1470	1.803

C[S+](C)[O-] [dimethyl sulfoxide] + Cc1ccccc1Cl
[1], x1 = 1
Conditions	mass density [kg/m3]	speed of sound [m/s]
–	1091.35	1470

Clc1ccc(Cl)c(Cl)c1 [1,2,4-trichlorobenzene] + C[S+](C)[O-]
[1]
Conditions	excess molar volume [m3/mol]	mass density [kg/m3]	speed of sound [m/s]	viscosity [mPa·s]
x2 = 0	–	1442.14	1260	1.613
x2 = 0.0911	1.2e-08	–	1253	1.647
x2 = 0.1214	1.6e-08	–	1252	1.658
x2 = 0.1805	2.3e-08	–	1257	1.677
x2 = 0.2144	2.7e-08	–	1259	1.688
x2 = 0.251	3.2e-08	–	1264	1.699
x2 = 0.3225	3.9e-08	–	1274	1.719
x2 = 0.4115	4.6e-08	–	1285	1.742
x2 = 0.467	4.8e-08	–	1296	1.755
x2 = 0.5001	5e-08	–	1302	1.763
x2 = 0.5524	4.8e-08	–	1316	1.773
x2 = 0.6207	4.7e-08	–	1339	1.786
x2 = 0.7005	4e-08	–	1379	1.796
x2 = 0.7829	3e-08	–	1415	1.801
x2 = 0.8014	2.8e-08	–	1423	1.802
x2 = 0.9228	1.2e-08	–	1459	1.803

Cc1ccc(Cl)cc1 [4-chlorotoluene]
Conditions	speed of sound [m/s]
[2]	1271

[2]
Conditions	mass density [kg/m3]	viscosity [mPa·s]
Capillary tube (Ostwald / Ubbelohde) method	–	0.9
Pycnometric method	1060.54	–

Cc1ccc(Cl)cc1 [4-chlorotoluene] + C[S+](C)[O-]
[1]
Conditions	excess molar volume [m3/mol]	mass density [kg/m3]	speed of sound [m/s]	viscosity [mPa·s]
x2 = 0	–	1060.54	1271	0.9
x2 = 0.0768	1.3e-08	–	1292	1.039
x2 = 0.1105	2.3e-08	–	1302	1.094
x2 = 0.1546	2.9e-08	–	1312	1.16
x2 = 0.2045	3.5e-08	–	1327	1.232
x2 = 0.2543	4.1e-08	–	1340	1.287
x2 = 0.3111	4.8e-08	–	1357	1.351
x2 = 0.3704	5.2e-08	–	1372	1.41
x2 = 0.4904	5.7e-08	–	1401	1.521
x2 = 0.5174	5.7e-08	–	1410	1.544
x2 = 0.554	5.6e-08	–	1418	1.573
x2 = 0.6014	5.3e-08	–	1430	1.611
x2 = 0.7074	4.5e-08	–	1453	1.687
x2 = 0.761	3.8e-08	–	1465	1.725
x2 = 0.8214	3.2e-08	–	1467	1.76
x2 = 0.8906	2e-08	–	1468	1.78

C[S+](C)[O-] [dimethyl sulfoxide] + Clc1ccccc1Cl
[1], x1 = 1
Conditions	mass density [kg/m3]	speed of sound [m/s]	viscosity [mPa·s]
–	1091.35	1470	1.803

Clc1ccccc1Cl [1,2-dichlorobenzene] + C[S+](C)[O-]
[1]
Conditions	excess molar volume [m3/mol]	mass density [kg/m3]	speed of sound [m/s]	viscosity [mPa·s]
x2 = 0	–	1299.24	1261	1.302
x2 = 0.104	2.3e-08	–	1264	1.379
x2 = 0.1511	3.3e-08	–	1268	1.409
x2 = 0.2041	4e-08	–	1274	1.443
x2 = 0.2506	4.7e-08	–	1279	1.472
x2 = 0.301	5.3e-08	–	1284	1.502
x2 = 0.4025	6e-08	–	1303	1.56
x2 = 0.4511	6.3e-08	–	1312	1.587
x2 = 0.521	6.5e-08	–	1329	1.623
x2 = 0.6511	5.8e-08	–	1367	1.686
x2 = 0.7221	5.3e-08	–	1394	1.719
x2 = 0.7519	4.9e-08	–	1403	1.73
x2 = 0.8002	4e-08	–	1417	1.751
x2 = 0.8514	3.5e-08	–	1435	1.766
x2 = 0.9019	2.3e-08	–	1446	1.782
x2 = 0.9405	1.3e-08	–	1457	1.782

C[S+](C)[O-] [dimethyl sulfoxide] + Clc1cccc(Cl)c1
[1], x1 = 1
Conditions	mass density [kg/m3]	speed of sound [m/s]
–	1091.35	1470

C[S+](C)[O-] [dimethyl sulfoxide] + Cc1cccc(Cl)c1
[1], x1 = 1
Conditions	mass density [kg/m3]	speed of sound [m/s]	viscosity [mPa·s]
–	1091.35	1470	1.803

Cc1cccc([N+](=O)[O-])c1 [3-nitrotoluene] + C[S+](C)[O-]
[1]
Conditions	excess molar volume [m3/mol]	mass density [kg/m3]	speed of sound [m/s]	viscosity [mPa·s]
x2 = 0	–	1147.67	–	1.777
x2 = 0.1052	3.9e-08	–	2002	1.78
x2 = 0.1512	6e-08	–	1964	1.781
x2 = 0.1921	7.9e-08	–	1936	1.782
x2 = 0.2216	9.2e-08	–	1909	1.783
x2 = 0.272	1.14e-07	–	1876	1.784
x2 = 0.305	1.28e-07	–	1851	1.785
x2 = 0.3641	1.52e-07	–	1812	1.786
x2 = 0.4121	1.62e-07	–	1778	1.787
x2 = 0.4772	1.77e-07	–	–	1.789
x2 = 0.5226	1.83e-07	–	1711	1.79
x2 = 0.6035	1.75e-07	–	1661	1.792
x2 = 0.724	1.46e-07	–	1598	1.794
x2 = 0.8126	1.07e-07	–	1555	1.796
x2 = 0.8905	6.2e-08	–	1518	1.799
x2 = 0.9607	2.5e-08	–	1489	1.801
